Experimental data taken from patent publication US20160113931A1, “Method of treating and/or preventing neurodegenerative diseases” (University of Macau, priority 2014, published 2016).

Key:
primary cortical neurons [1] = experiment: α-tubulin and MAP2 expression in primary cortical neurons; format: cell-based, rat; conditions: 10 and 30 μM, 14 days
Description: (§1) Primary culture of cortical neurons was prepared from embryonic day 18±0.5 Sprague-Dawley rats. One day after seeding, primary cortical neurons were treated with 10 and 30 μM BHDPC for 14 days. Fourteen days following BHDPC treatment, primary cortical neurons cultured on glass coverslips (Thermo Scientific) were fixed with 4% paraformaldehyde for 15 min. Following fixation, neurons were permeabilized with 0.1% Triton X-100 in Tris-buffered saline for 7 min, and blocked with 4% bovine serum albumin and 2% goat serum for 1 h. α-tubulin and MAP2 were incubated at 1:400 dilution for 1 h at room temperature and overnight at 4° C. respectively. Following primary antibody incubation, neurons were incubated with Alexa Flour 488 or 568 secondary antibodies (anti-rabbit or anti-mouse) at 1:400 dilution for 1 h at room temperature. The coverslips were then mounted on microscopic slides (Thermo Scientific) using ProLong® Gold Antifade Mountant (Molecular Probes). Neurons were imaged using the LSM 780 laser scanning microscope (Carl Zeiss). Fluorescence intensity was measured using Image J.

SH-SY5Y cells [2] = experiment: Cytotoxicity of BHDPC in SH-SY5Y cells (MTT assay); format: cell-based, human; conditions: BHDPC 3 to 30 μM, 24 h
Description: (§2) The human neuroblastoma SH-SY5Y cells were purchased from America Tissue Type Collection. The cells were maintained in DMEM medium supplemented with 10% fetal bovine serum and penicillin/streptomycin (100 U/mL; 100 μg/mL) in a 37° C., 5% CO2 incubator. All experiments were carried out 48 hours after the cells were seeded.
(§3) The percentage of surviving cells was estimated by determining the activity of mitochondrial dehydrogenases with 3(4,5-dimethylthiazol-2-yl)-2,5-diphenyltetrazolium bromide (MTT) assay. After drug treatment, cells were incubated at 37° C. for 4 h in 0.5 mg/mL MTT solution. The medium was then removed, and 100 μL of DMSO was added to each well to dissolve the violet formazan crystals. The absorbance of the samples was measured at a wavelength of 570 nm with 655 nm as a reference wavelength. All values were normalized to the control groups.
To evaluate the cytotoxicity of BHDPC, SH-SY5Y cells were incubated with various concentrations of BHDPC for 24 h and the cell viability was determined using MTT assay.

NIH mice = experiment: Acute toxicity assay in NIH mice; format: in vivo; conditions: maximum dose, observed 14 days
Description: NIH mice, sex in half, for acute toxicity assay was supplied by Guangzhou Medicinal Experiment Animal Center and the animal qualification code was 44007200007090 and the certificate number was SCXK (Guangdong) 2013-0002. The animals were kept in the SPF-grade animal laboratory which was conformed to the SPF grade requirement of animal testing facility, where temperature was within the range of 22° C. (±2° C.) and the humidity was in the range of 30-70%. The diurnal lighting and darkness cycle was 12 hours. The air change per hour was in the range of 10-20 times. The approval no. of the SPF animal laboratory was SYXK (Guangdong) 2005-0062. The rat chow was the SPF-grade full pellet for mouse, which was bought from Guangdong Medicinal Laboratory Animal Center. The nutritional values and the sanitation condition were conformed to the SPF-grade requirement for animal testing. Antiseptic water were given ad libitum.
NIH mice were randomly divided into 6 groups. Ten NIH mice, sex in half, were assigned to for each group. […]

ROCK1 = ROCK1 (Homo sapiens, UniProt Q13464); experiment: Kinase activity assay ROCK1; format: biochemical
Description: ROCK has two isoforms (ROCK1 and ROCK2) sharing the same downstream proteins. Bioassay and molecular docking are used to compare the characteristics of BHDPC on ROCK. […] Through molecular docking and molecular dynamics simulation, the interaction between the inhibitor and ROCK1 was shown in FIG. 17.

SH-SY5Y cells [3] = experiment: MPP+-induced cytotoxicity in SH-SY5Y cells (MTT assay); format: cell-based, human; conditions: 30 μM, 2 h pre-treatment, 1 mM MPP+ 24 h
Description: Cells were pre-treated with BHDPC (3, 10 and 30 μM) for 2 h and then incubated with or without 1 mM MPP^+ for further 24 h. Cell viability was measured by the MTT assay.
as §2, §3
To test the neuroprotective effects of BHDPC, SH-SY5Y cells were pre-treated with gradually increasing concentrations of BHDPC for 2 h and then treated with 1 mM MPP^+ for 24 hours. Cell viability was measured using the MTT assay.

primary cortical neurons [4] = experiment: MPP+-induced neuronal death in primary cortical neurons (LDH release); format: cell-based, rat; conditions: 2 h pre-treatment, 200 μM MPP+ 24 h
Description: as §1, with “The coverslips were then mounted on microscopic slides (Thermo Scientific) using ProLong® Gold Antifade Mountant (Molecular Probes). Neurons were imaged using the LSM 780 laser scanning microscope (Carl Zeiss).” left out
Cell cytotoxicity was also determined by measuring the activity of LDH released into the incubation medium when cellular membranes were damaged. […] After treatment, the released LDH activity in the medium was measured according to the instructions of the Cytotoxicity Detection Kit (Roche Applied Science, Mannheim, Germany). Absorbance at 490 nm was measured using SpectraMax M5. […]
LDH release was measured at 24 hours after the MPP^+ challenge.

Sequence of ROCK1 (Q13464 whole entry, species assumed, canonical isoform): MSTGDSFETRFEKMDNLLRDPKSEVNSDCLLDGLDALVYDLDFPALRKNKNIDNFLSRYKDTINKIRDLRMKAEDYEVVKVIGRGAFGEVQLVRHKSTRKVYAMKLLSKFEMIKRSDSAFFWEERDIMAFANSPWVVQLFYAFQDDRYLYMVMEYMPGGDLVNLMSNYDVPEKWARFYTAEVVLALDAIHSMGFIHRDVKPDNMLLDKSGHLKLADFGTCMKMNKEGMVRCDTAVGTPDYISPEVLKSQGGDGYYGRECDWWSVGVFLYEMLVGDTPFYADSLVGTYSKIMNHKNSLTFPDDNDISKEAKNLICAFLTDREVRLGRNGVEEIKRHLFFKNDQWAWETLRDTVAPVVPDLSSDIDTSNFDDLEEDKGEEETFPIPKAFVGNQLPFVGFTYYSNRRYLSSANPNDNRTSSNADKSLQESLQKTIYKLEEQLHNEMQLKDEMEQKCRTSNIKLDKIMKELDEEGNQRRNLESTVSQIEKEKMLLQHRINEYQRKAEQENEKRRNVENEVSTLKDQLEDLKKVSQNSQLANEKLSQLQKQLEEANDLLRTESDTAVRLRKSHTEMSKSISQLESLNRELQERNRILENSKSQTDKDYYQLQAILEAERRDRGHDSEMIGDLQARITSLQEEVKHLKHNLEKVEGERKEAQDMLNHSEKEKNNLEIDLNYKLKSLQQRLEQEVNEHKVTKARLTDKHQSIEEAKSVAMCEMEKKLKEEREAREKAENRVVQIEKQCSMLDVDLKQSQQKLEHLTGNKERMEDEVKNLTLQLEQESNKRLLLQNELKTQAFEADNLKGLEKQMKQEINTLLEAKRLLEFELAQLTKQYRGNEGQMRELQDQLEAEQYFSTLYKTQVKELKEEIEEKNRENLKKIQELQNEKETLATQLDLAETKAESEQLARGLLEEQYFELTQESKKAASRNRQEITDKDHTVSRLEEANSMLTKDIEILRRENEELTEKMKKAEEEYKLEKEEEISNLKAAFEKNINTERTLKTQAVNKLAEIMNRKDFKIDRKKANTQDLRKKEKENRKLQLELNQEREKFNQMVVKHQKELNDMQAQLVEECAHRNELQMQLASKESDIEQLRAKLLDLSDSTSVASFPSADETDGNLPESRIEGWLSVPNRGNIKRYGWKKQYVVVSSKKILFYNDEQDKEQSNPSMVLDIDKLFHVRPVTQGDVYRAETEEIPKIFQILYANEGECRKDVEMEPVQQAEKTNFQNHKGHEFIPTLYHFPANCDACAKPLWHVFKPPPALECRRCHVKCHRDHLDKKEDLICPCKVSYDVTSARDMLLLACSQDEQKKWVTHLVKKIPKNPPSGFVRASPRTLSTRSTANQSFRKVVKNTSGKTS

With COc1cc(C2C(C(=O)OCc3ccccc3)=C(C)Nc3nnnn32)ccc1O (stereo not drawn) [BHDPC, benzyl 7-(4-hydroxy-3-methoxyphenyl)-5-methyl-4,7-dihydrotetrazolo[1,5-a]pyrimidine-6-carboxylate] the “level of microtubule-associated protein (MAP2)” value (primary cortical neurons [1]) was “increase levels”, the “level of α-tubulin” value (primary cortical neurons [1]) was “increase levels” and the “cytotoxicity (cell viability, MTT)” value (SH-SY5Y cells [2]) was “did not cause any cytotoxicity”. For the same compound, the toxic effects (NIH mice; 5 mg/kg, iv) was “no toxic effects were observed”, the toxic effects (NIH mice; 10 mg/kg, oral gavage) was “no toxic effects were observed” and the “affinity ROCK1 versus ROCK2” value (ROCK1; from IC50 values) was “better affinity for ROCK1 than ROCK2”. For the same compound, the IC50 (ROCK1; kinase activity assay) was 13.7 µM, the “MPP+-induced neuronal death (cell viability, MTT)” value (SH-SY5Y cells [3]) was “prevented MPP^+-induced dopaminergic neuronal death” and the “MPP+-induced neuronal death (LDH release)” value (primary cortical neurons [4]) was “prevented MPP^+-induced neuronal death”.
